4 molecules from paper PMC9038795, “Deletion and tandem duplications of biosynthetic genes drive the diversity of triterpenoids in Aralia elata” (Nature Communications, 2022) can be followed below.

What all share (experiment): HPLC-MS kinetic assay
What all share (assay type): biochemical, Aralia elata
Conditions in all cases: 0.5 mM UDP-Glc, 50 mM Tris-HCl pH 7.0, 30 °C, 1 µM enzyme

Test [1] has as its system T1, AeUGT73AD2.
T1 construct: pGEX-4T-1, GST-tagged, E. coli BL21 (DE3), GSTrap purified

Test [2] relates to T2, AeUGT74AG6.
T2 construct: pGEX-4T-1, GST-tagged, E. coli BL21 (DE3), GSTrap purified

The test system of test [3] is T3, AeUGT73CB3.
T3 construct: pGEX-4T-1, GST-tagged, E. coli BL21 (DE3), GSTrap purified; methods print AeUGT74CB3
Here is the method: HPLC-MS kinetic assay on AeUGT73CB3 | The kinetic parameters of AeUGT73CB3 for calenduloside E and chikusetsusaponin IVa as substrates were analyzed.

Usually Km stands for the concentration of substrate that gives half-maximal velocity. With `CC1(C)CC[C@]2(C(=O)O)CC[C@]3(C)C(=CC[C@@H]4[C@@]5(C)CC[C@H](O)C(C)(C)[C@@H]5CC[C@]43C)[C@@H]2C1` [compound 2, oleanolic acid], the Km in test [1] was determined as 43 ± 9.17 µM; in test [2], 40.3 ± 2.49 µM.
In the case of `CC1(C)CC[C@]2(C(=O)O)CC[C@]3(C)C(=CC[C@@H]4[C@@]5(C)CC[C@H](O[C@@H]6O[C@H](C(=O)O)[C@@H](O)[C@H](O)[C@H]6O)C(C)(C)[C@@H]5CC[C@]43C)[C@@H]2C1` [compound 7, calenduloside E], the figures for the Km in test [3] and in test [2] were 51.8 ± 2.1 µM and 150 ± 7.7 µM, respectively.
Turning to `CC1(C)CC[C@]2(C(=O)O)CC[C@]3(C)C(=CC[C@@H]4[C@@]5(C)CC[C@H](O[C@@H]6O[C@H](C(=O)O)[C@@H](O)[C@H](O)[C@H]6O[C@@H]6O[C@H](CO)[C@@H](O)[C@H](O)[C@H]6O)C(C)(C)[C@@H]5CC[C@]43C)[C@@H]2C1` [compound 8, zingibroside R1], in test [2], the Km was determined as 48.8 ± 3.04 µM.
Take `CC1(C)CC[C@]2(C(=O)O[C@@H]3O[C@H](CO)[C@@H](O)[C@H](O)[C@H]3O)CC[C@]3(C)C(=CC[C@@H]4[C@@]5(C)CC[C@H](O[C@@H]6O[C@H](C(=O)O)[C@@H](O)[C@H](O)[C@H]6O)C(C)(C)[C@@H]5CC[C@]43C)[C@@H]2C1` [compound 9, chikusetsusaponin IVa]: the Km in test [3] amounted to 640.2 ± 4.6 µM.
